Counter-ions that a name gives are not always drawn. Like-named read-outs stand apart in the source and are kept apart here.
Columns and labels:
gabapentin binding site = test: Gabapentin binding assay (displacement of gabapentin from its binding site); conditions: displacement of gabapentin, read-out: Affinity (IC50)
Description: Gabapentin is used in the binding assay in order to determine the binding and affinities of the selected compounds. The affinity of the compounds according to the invention is measured via the displacement of gabapentin from its binding site.

[1] = tested on: formalin-induced nociception; test: Formalin test on mice (second phase); assay type: in vivo; conditions: read-out: Mouse Formalin Test ED50
Description: The investigations to determine the antinociceptive action of the compounds according to the invention were carried out by the formalin test on male albino mice (NMRI, 25-35 g, Iffa Credo, Belgium).
In the formalin test the first (early) phase (0-15 minutes after the formalin injection) and the second (late) phase (15-60 minutes after the formalin injection) differ (D. Dubuisson et al., Pain, Vol. 4, pp. 161-174 (1977)). The early phase, being a direct reaction to the formalin injection, constitutes a model for acute pain, whereas the late phase is regarded as a model for persistent (chronic or inflammatory) pain (T. J. Coderre et al., Pain, Vol. 52, pp. 259-285 (1993)).
The compounds according to the invention were investigated in the second phase of the formalin test in order to obtain information on the effects of substances in chronic/inflammatory pain.
By means of a single subcutaneous formalin injection (20 μl, 1% aqueous solution) into the dorsal side of the right-hand rear paw, a nociceptive reaction was induced in unconstrained experimental animals, manifested in a noticeable licking and biting of the affected paw. The nociceptive behavior during the investigation period in the second (late) phase of the formalin test was continuously monitored by observing the animals. The pain reaction was quantified by totalling the time in seconds during which the animals continued to lick and bite the affected paw during the investigation period. After injecting substances that have an antinociceptive effect in the formalin test, the aforedescribed behavior pattern of the animals is reduced or possibly even eliminated. Corresponding to the substance tests, in which the animals had been injected with the test substance before formalin, the control animals were injected with a vehicle, i.e. solvent (e.g. 0.9% NaCl solution) before the formalin injection. The behavior of the animals after administration of the substance (n=10 per substance dose) was compared with a control group (n=10).
Based on the quantification of the pain reaction, the effect of the substance in the formalin test was determined as the change in the control in percentage terms. The ED50 calculations were carried out by means of regression analysis. The application time before the formalin injection (intraperitoneally: 15 minutes, intravenously: 5 minutes) was chosen depending on the type of application of the compounds according to the invention.

cold-induced allodynia = test: Bennett model, neuropathic pain in rats (cold-induced allodynia); assay type: in vivo; conditions: rat; for AUD: over 1 hour, *** p≦0.001
Description: The effectiveness in neuropathic pain was investigated using the Bennett model (Chronic Constriction Injury: Bennett and Xie, 1988, Pain 33: 87-107).
The right sciatic nerve of Sprague-Dawley rats weighing 140-160 g anaesthetised with nembutal was loosely ligatured in four places. The animals develop an hypersensitivity in the paw inervated by the damaged nerve, which after a one-week healing phase is quantified over about four weeks by means of a 4° C. cold metal plate (cold-induced allodynia). The animals are observed for a period of 2 minutes on this plate and the number of contractive reactions of the damaged paw is measured. The effect of the substance is determined at four times over a period of 1 hour (15, 30, 45 and 60 minutes after application) with reference to the baseline value before application of the substance and the resulting area under the curve (AUD) as well as the inhibition of the cold-induced allodynia at the individual measuring points is expressed as a percentage inhibition with respect to the vehicle control (AUD) and to the starting value (individual measurement points). The group size is n=10, and the significance of an anti-allodynic action is determined on the basis of the AUD values over a paired Test (* 0.05≧p>0.01; ** 0.01≧p>0.001; *** p≦0.001; Armitage and Berry, 1987, Stat. Methods in Medical Research, London: Blackwell Scientific Publications).

[2] = tested on: phenylquinone-induced writhing reactions; test: Phenylquinone-induced writhing test in mice; assay type: in vivo; conditions: iv, read-out: Writhing Mouse i.v. ED50
Description: The antinociceptive effectiveness of the compounds according to the invention was investigated in mice using the phenylquinone-induced writhing test as modified by I. C. Hendershot and J. Forsaith, J. Pharmacol. Exp. Ther. 125, 237-240 (1959)). Male NMRI mice weighing 25-30 g were used for this purpose. Groups of 10 animals per substance dose were given intraperitoneally 10 minutes after intravenous administration of a compound according to the invention, 0.3 ml/mouse of a 0.02% aqueous solution of phenylquinone (phenylbenzoquinone, from Sigma, Deisenhofen; solution prepared by addition of 5% of ethanol and storage in a water bath at 45° C.). The animals were placed individually in observation cages. The number of pain-induced stretching movements (so-called writhing reactions=contortion of the body accompanied by stretching of the rear extremities) 5-20 minutes after administration of the phenylquinone were counted using a push-button counter. Animals that had received physiological saline solution i.v. and phenylquinone […]. served as controls.
All substances were tested in the standard dose of 10 mg/kg.

[3] = tested on: mechanical hyperalgesia after paw incision; test: Mechanical hyperalgesia after paw incision in rats (paw incision model); assay type: in vivo; conditions: rat, 464 mg/kg i.p.
Description: In this model the wound pain in the tissue surrounding an incision in the plantar side of a rear rat paw is investigated as a model of post-operative pain (Brennan, T. J., Vandermeulen, E. P., Gebhart, G. F., Pain (1996) 493-501). For this purpose the retraction latency after punctiform mechanical stimulation with an electronic von Frey filament is determined. After the paw incision a mechanical hyperalgesia develops, which remains stable over several days.
Male Sprague Dawley rats (bodyweight 200-300 g) are used. Under halothane anaesthesia a 1 cm-long incision is made starting 0.5 cm from the proximal end of the heel, through the skin, fascia and plantaris muscle, and closed with two stitches.
The retraction threshold of the paw expressed in grams after punctiform mechanical stimulation is determined using an electronic von Frey filament (Digital Transducer Indicator Model 1601C, IITC Inc.). For this purpose the retraction threshold per measurement point is measured five times at intervals of 30 seconds and the individual median value is determined, on the basis of which the mean value of the animal cohort is in turn calculated. […]
In order to investigate primary hyperalgesia, the retraction threshold is determined on the ipsilateral paw in the immediate vicinity of the incision as well as in the same position on the contralateral paw. […]

[4] = mouse, i.v., 10 minutes before phenylquinone

Row | SMILES | ED50 ([1]; iv, mouse, i.v., second phase) [mg/kg] | IC50 (gabapentin binding site; hydrochloride) [nM] | ED50 [2, 4] [mg/kg] | ED50 ([1]; ip, mouse, i.p., second phase) [mg/kg] | other results
1 | CCCC(C)(S)C(N)C(=O)O.Cl (racemic) [Compound 2, rac-2-amino-3-mercapto-3-methylhexanoic acid hydrochloride] | 158 | – | – | – | IC50 (gabapentin binding site): 165 nM
2 | CCCCCC(C)(S)C(N)C(=O)O.Cl (racemic) [Compound 4, rac-2-amino-3-mercapto-3-methyloctanoic acid hydrochloride] | 67 | 186 | 12 | – | Change Compared to Control (%) (cold-induced allodynia; 46.4 mg/kg i.p.): 32.5%; AUD (cold-induced allodynia; 46.4 mg/kg i.p.): 1893.1 ± 284.6***; Change Compared to Control (%) (cold-induced allodynia; 100 mg/kg i.p.): 66.9%; AUD (cold-induced allodynia; 100 mg/kg i.p.): 3603.1 ± 228.1***
3 | CCCCCCC(C)(S)C(N)C(=O)O.Cl (racemic) [Compound 5, rac-2-amino-3-mercapto-3-methylnonanoic acid hydrochloride] | – | 70 | – | 54 | –
4 | CCCCCCCC(C)(S)C(N)C(=O)O.Cl (racemic) [Compound 6, rac-2-amino-3-mercapto-3-methyldecanoic acid hydrochloride] | 66 | 199 | 35 | – | % MPE (Maximal Possible Effect) [3]: 27% MPE (464 mg/kg) i.p.
5 | Cl.NC(C(=O)O)C1(S)CCCC1 (racemic) [Compound 8, rac-amino-(1-mercaptocyclopentyl)acetic acid hydrochloride] | 79 | – | 70 | – | IC50 (gabapentin binding site): 151 nM
6 | CCCCCCCC(C)(S)C(N)C(=O)O.Cl (racemic) [Compound 10, rac-threo-2-amino-3-mercapto-3-methyldecanoic acid hydrochloride] | – | 150 | – | 105 | –
7 | CCCCCCC(C)(S)C(N)C(=O)O (racemic) [Compound 12, rac-threo-2-amino-3-mercapto-3-methylnonanoic acid hydrochloride] | – | 70 | – | 78 | –
8 | NCC1(CC(=O)O)CCCCC1 [Gabapentin, gabapentin, reference compound] | – | – | – | – | Change Compared to Control (%) (cold-induced allodynia; 100 mg/kg i.p.): 34.5%; AUD (cold-induced allodynia; 100 mg/kg i.p.): 1940.3 ± 139.7***; Change Compared to Control (%) (cold-induced allodynia; 464 mg/kg i.p.): 47.3%; AUD (cold-induced allodynia; 464 mg/kg i.p.): 2577.8 ± 147.4***; ED50 ([2]; Mus musculus): 38 mg/kg; ED50 ([1]; Mus musculus): 79 mg/kg

Source: patent US6846843B2, “β-thioamino acids” (Gruenenthal GmbH, priority 2000, dated 2005)
